Assay results published in article doi:10.1101/2022.12.02.518844v2 (bioRxiv, 2022).

Test system: 1057 cells (GRPR^pos)
Assay: Cell growth of GRPR^pos mouse melanoma cells
Assay type: cell-based
Conditions: 1 µM GRPR inhibitor + 10 nM GRP, low-serum medium, 48 h

Compound: COc1ccc(C2(CNC(=O)[C@](C)(Cc3c[nH]c4ccccc34)NC(=O)Nc3ccc([N+](=O)[O-])cc3)CCCCC2)nc1 [PD-176252]
- GRP-induced growth assessed by MTT: same blocking effect
